In brackets after ≈: the same amount, converted by molar mass. Activity calls are given as the source filed them. The calls are words filed in the database; no cut-off is given here.
Legend:
[1] = system: Enterococcus faecium; test: Antibacterial activity against Enterococcus faecium clinical isolate 1091282 assessed as inhibition of bacterial growth by CLSI protocol based broth microdilution method; format: functional
[2] = system: Staphylococcus aureus; test: Antibacterial activity against Staphylococcus aureus clinical isolate 1088105 assessed as inhibition of bacterial growth by CLSI protocol based broth microdilution method; format: functional
[3] = system: Enterococcus faecium; test: Antibacterial activity against Enterococcus faecium clinical isolate 1089544 assessed as inhibition of bacterial growth by CLSI protocol based broth microdilution method; format: functional
[4] = system: Enterococcus faecalis; test: Antibacterial activity against Enterococcus faecalis clinical isolate 1094112 assessed as inhibition of bacterial growth by CLSI protocol based broth microdilution method; format: functional
[5] = system: Staphylococcus aureus; test: Antibacterial activity against Staphylococcus aureus clinical isolate 1089106 assessed as inhibition of bacterial growth by CLSI protocol based broth microdilution method; format: functional
[6] = system: Staphylococcus aureus; test: Antibacterial activity against Staphylococcus aureus clinical isolate 1088888 assessed as inhibition of bacterial growth by CLSI protocol based broth microdilution method; format: functional
[7] = system: Enterococcus faecalis; test: Antibacterial activity against Enterococcus faecalis clinical isolate 1100440 assessed as inhibition of bacterial growth by CLSI protocol based broth microdilution method; format: functional
[8] = system: Enterococcus faecium; test: Antibacterial activity against Enterococcus faecium clinical isolate 1088168 assessed as inhibition of bacterial growth by CLSI protocol based broth microdilution method; format: functional
[9] = system: Enterococcus faecalis; test: Antibacterial activity against Enterococcus faecalis clinical isolate 1091720 assessed as inhibition of bacterial growth by CLSI protocol based broth microdilution method; format: functional
[10] = system: Enterococcus faecium; test: Antibacterial activity against Enterococcus faecium clinical isolate 1088925 assessed as inhibition of bacterial growth by CLSI protocol based broth microdilution method; format: functional
[11] = system: Staphylococcus aureus; test: Antibacterial activity against Staphylococcus aureus clinical isolate 1088064 assessed as inhibition of bacterial growth by CLSI protocol based broth microdilution method; format: functional
[12] = system: Enterococcus faecalis; test: Antibacterial activity against Enterococcus faecalis clinical isolate 1091563 assessed as inhibition of bacterial growth by CLSI protocol based broth microdilution method; format: functional
[13] = system: Staphylococcus aureus; test: Antibacterial activity against Staphylococcus aureus clinical isolate 1088610 assessed as inhibition of bacterial growth by CLSI protocol based broth microdilution method; format: functional
[14] = system: Staphylococcus aureus; test: Antibacterial activity against Staphylococcus aureus clinical isolate 1088626 assessed as inhibition of bacterial growth by CLSI protocol based broth microdilution method; format: functional
[15] = system: Enterococcus faecalis; test: Antibacterial activity against Enterococcus faecalis clinical isolate 1088051 assessed as inhibition of bacterial growth by CLSI protocol based broth microdilution method; format: functional
[16] = system: Staphylococcus aureus; test: Antibacterial activity against Staphylococcus aureus clinical isolate 1088060 assessed as inhibition of bacterial growth by CLSI protocol based broth microdilution method; format: functional
[17] = system: Enterococcus faecium; test: Antibacterial activity against Enterococcus faecium clinical isolate 1088228 assessed as inhibition of bacterial growth by CLSI protocol based broth microdilution method; format: functional
[18] = system: Staphylococcus aureus; test: Bactericidal activity against Staphylococcus aureus ATCC 700699 assessed as bacteria elimination at 4 times MIC and measured after 6 hrs by time-kill assay; format: functional
[19] = system: Staphylococcus aureus; test: Bactericidal activity against Staphylococcus aureus ATCC 700699 persisters assessed as log reduction in colony forming unit at 64 times MIC after 4 hrs by colony counting method; format: functional, organism-based
[20] = system: Staphylococcus aureus; test: Inhibition of RNA synthesis in Staphylococcus aureus ATCC 29213 at 8 times MIC preincubated for 30 mins followed by [3H]-uridine and measured after 30 mins by [3H]-uridine incorporation based beta scintillation counter analysis; format: functional; conditions: time 60 min; 1 h
[21] = system: Enterococcus faecalis; test: Inhibition of biofilm formation in Enterococcus faecalis ATCC 29212 at 6.25 ug/ml incubated for 24 hrs by Calgary biofilm device assay; format: functional; conditions: dose 6.25 µg/ml
[22] = system: Staphylococcus aureus; test: Antibacterial activity against antibiotic resistant Staphylococcus aureus ATCC 700699 assessed as inhibition of bacterial growth by CLSI protocol based broth microdilution method; format: functional
[23] = system: Staphylococcus aureus; test: Antibacterial activity against antibiotic resistant Staphylococcus aureus ATCC 33591 assessed as inhibition of bacterial growth by CLSI protocol based broth microdilution method; format: functional
[24] = system: Staphylococcus aureus; test: Antibacterial activity against antibiotic susceptible Staphylococcus aureus ATCC 25923 assessed as inhibition of bacterial growth by CLSI protocol based broth microdilution method; format: functional
[25] = system: Staphylococcus epidermidis; test: Antibacterial activity against antibiotic resistant Staphylococcus epidermidis ATCC 700296 assessed as inhibition of bacterial growth by CLSI protocol based broth microdilution method; format: functional
[26] = system: Enterococcus faecalis; test: Anti-biofilm activity against Enterococcus faecalis ATCC 29212 assessed as biofilm eradication at 3.125 to 12.5 ug/ml incubated for 24 hrs by Calgary biofilm device assay; format: functional, organism-based; conditions: dose 3.125-12.5 µg/ml
[27] = system: Staphylococcus aureus; test: Inhibition of biofilm formation in Staphylococcus aureus ATCC 25923 at 3.125 to 12.5 ug/ml incubated for 24 hrs by Calgary biofilm device assay; format: functional, organism-based; conditions: dose 3.125-12.5 µg/ml, DDE = dose-dependent effect
[28] = system: Enterococcus faecium; test: Antibacterial activity against vancomycin resistant Enterococcus faecium ATCC 700221 assessed as inhibition of bacterial growth by CLSI protocol based broth microdilution method; format: functional
[29] = system: Enterococcus faecalis; test: Anti-biofilm activity against Enterococcus faecalis ATCC 29212 assessed as eradication of biofilm formation incubated for 24 hrs by Calgary biofilm device assay; format: functional
[30] = system: Staphylococcus aureus; test: Inhibition of biofilm formation in Staphylococcus aureus ATCC 25923 at 12.5 ug/ml incubated for 24 hrs by Calgary biofilm device assay; format: functional
[31] = system: Staphylococcus aureus; test: Antibacterial activity against Staphylococcus aureus ATCC 25923 assessed as minimum bactericidal concentration incubated for 24 hrs by Calgary biofilm device assay; conditions: ATCC 25923, 24 h
[32] = system: Staphylococcus aureus; test: Antibacterial activity against antibiotic resistant Staphylococcus aureus ATCC 33592 assessed as inhibition of bacterial growth by CLSI protocol based broth microdilution method; format: functional
[33] = system: Enterococcus faecalis; test: Antibacterial activity against antibiotic susceptible Enterococcus faecalis ATCC 29212 assessed as inhibition of bacterial growth by CLSI protocol based broth microdilution method; format: functional
[34] = system: Bacillus subtilis; test: Antibacterial activity against antibiotic resistant Bacillus subtilis ATCC 6623 assessed as inhibition of bacterial growth by CLSI protocol based broth microdilution method; format: functional
[35] = system: Staphylococcus aureus; test: Anti-biofilm activity against Staphylococcus aureus ATCC 25923 assessed as eradication of biofilm formation incubated for 24 hrs by Calgary biofilm device assay; format: functional
[36] = system: Staphylococcus aureus; test: Bactericidal activity against Staphylococcus aureus ATCC 700699 persisters assessed as log reduction in colony forming unit at 16 times MIC after 4 hrs by colony counting method; format: functional
[37] = system: Enterococcus faecalis; test: Anti-biofilm activity against Enterococcus faecalis ATCC 29212 assessed as minimum bactericidal concentration incubated for 24 hrs by Calgary biofilm device assay; conditions: ATCC 29212, 24 h
[38] = system: Staphylococcus aureus; test: Antibacterial activity against antibiotic resistant Staphylococcus aureus BAA-2312 assessed as inhibition of bacterial growth by CLSI protocol based broth microdilution method; format: functional
[39] = Cytotoxicity against human HEK293 cells reduction in cell viability incubated for 24 hrs by resazurin cell viability assay; format: toxicity, cell-based
[40] = system: Enterococcus faecalis; test: Inhibition of biofilm formation in Enterococcus faecalis ATCC 29212 at 12.5 ug/ml incubated for 24 hrs by Calgary biofilm device assay; format: functional
[41] = system: Staphylococcus aureus; test: Bactericidal activity against Staphylococcus aureus ATCC 700699 persisters assessed as log reduction in colony forming unit at 32 times MIC measured for 4 hrs by time kill assay; format: functional
[42] = system: Staphylococcus aureus; test: Bactericidal activity against Staphylococcus aureus ATCC 700699 persisters assessed as log reduction in colony forming unit at 16 times MIC measured for 4 hrs by time kill assay; format: functional
[43] = system: Staphylococcus aureus; test: Bactericidal activity against Staphylococcus aureus ATCC 700699 persisters assessed as log reduction in colony forming unit at 2 to 32 times MIC measured for 4 hrs by time kill assay; format: functional, organism-based; conditions: DDE = dose-dependent effect

Cc1onc(-c2ccccc2)c1C(=O)N[C@@H]1C(=O)N2[C@@H]1SC(C)(C)[C@@H]2C(=O)O [OXACILLIN]
MIC [1]: > 64 µg/mL | MIC [2]: 0.25 µg/mL (≈ 0.623 µM) | MIC [3]: > 64 µg/mL | MIC [4]: > 64 µg/mL | MIC [5]: 64 µg/mL (≈ 159 µM) | MIC [6]: > 64 µg/mL | MIC [7]: > 64 µg/mL | MIC [8]: > 64 µg/mL | MIC [9]: 64 µg/mL (≈ 159 µM) | MIC [10]: > 64 µg/mL | MIC [11]: 64 µg/mL (≈ 159 µM) | MIC [12]: 64 µg/mL (≈ 159 µM) | MIC [13]: 64 µg/mL (≈ 159 µM) | MIC [14]: 0.25 µg/mL (≈ 0.623 µM) | MIC [15]: 64 µg/mL (≈ 159 µM) | MIC [16]: 0.5 µg/mL (≈ 1.25 µM) | MIC [17]: > 64 µg/mL

GENTAMICIN
Activity [18]: > 99.9% | log(activity) [19]: 1

CO[C@H]1/C=C/O[C@@]2(C)Oc3c(C)c(O)c4c(O)c(c(/C=N/N5CCN(C)CC5)c(O)c4c3C2=O)NC(=O)/C(C)=C\C=C\[C@H](C)[C@H](O)[C@@H](C)[C@@H](O)[C@@H](C)[C@H](OC(C)=O)[C@@H]1C [RIFAMPIN]
inhibition (INH) [20]: 76.3%

Cc1cc(NCc2cn(-c3ccc(C(F)(F)F)cc3)nc2-c2ccc(C(=O)O)cc2)ccc1Br
inhibition [21]: Active | MIC [22]: 1.56 µg/mL (≈ 2.94 µM) | MIC [23]: 6.25 µg/mL (≈ 11.8 µM) | MIC [24]: 3.12 µg/mL (≈ 5.88 µM) | MIC [25]: 12.5 µg/mL (≈ 23.6 µM) | Activity [26]: Active | inhibition [27]: Dde | MIC [28]: 3.12 µg/mL (≈ 5.88 µM) | MBEC [29]: 25 µg/mL | inhibition at 12.5 µg/mL [30]: > 90% | MBC [31]: 12.5 µg/mL (≈ 23.6 µM) | MIC [32]: 3.12 µg/mL (≈ 5.88 µM) | Activity [18]: >99.9% | MIC [33]: 6.25 µg/mL (≈ 11.8 µM) | MIC [34]: 1.56 µg/mL (≈ 2.94 µM) | MBEC [35]: 12.5 µg/mL | log(activity) [36]: >2 | MBC [37]: 12.5 µg/mL (≈ 23.6 µM) | MIC [38]: 3.12 µg/mL (≈ 5.88 µM) | IC50 at 24 h [39]: > 12 µg/mL | inhibition ([40]; dose 12.5 µg/ml): Active

O=C(O)c1ccc(-c2nn(-c3ccc(C(F)(F)F)cc3)cc2CNc2ccc(Oc3ccccc3)cc2)cc1
MIC [22]: 1.56 µg/mL (≈ 2.95 µM) | MIC [23]: 3.12 µg/mL (≈ 5.89 µM) | MIC [24]: 1.56 µg/mL (≈ 2.95 µM) | MIC [25]: 3.12 µg/mL (≈ 5.89 µM) | Activity [26]: Active | inhibition [27]: Dde | MIC [28]: 1.56 µg/mL (≈ 2.95 µM) | log(activity) [41]: 3 | MBEC [29]: 12.5 µg/mL | MBC [31]: 3.12 µg/mL (≈ 5.89 µM) | MIC [32]: 1.56 µg/mL (≈ 2.95 µM) | Activity [18]: >99.9% | MIC [33]: 3.12 µg/mL (≈ 5.89 µM) | MIC [34]: 1.56 µg/mL (≈ 2.95 µM) | MBEC [35]: 6.25 µg/mL | log(activity) [36]: >2 | log(activity) [42]: 3 | Activity [43]: Dde | MBC [37]: 12.5 µg/mL (≈ 23.6 µM) | MIC [38]: 3.12 µg/mL (≈ 5.89 µM) | IC50 at 24 h [39]: 23.5 µg/mL (≈ 44.4 µM) | inhibition at 12.5 µg/mL [40]: 100%

From ChEMBL document CHEMBL5107949, “Design, synthesis, and antibacterial activity of N-(trifluoromethyl)phenyl substituted pyrazole derivatives” (RSC Med Chem, 2021)
